The results in this text go back to ChEMBL document CHEMBL1155981, “Molecular modeling studies to predict the possible binding modes of endomorphin analogs in mu opioid receptor” (Bioorg Med Chem Lett, 2009).

Structures are written as SMILES. pKi: −log10 of the molar value. Peptide text beside a SMILES is read from it. * marks the point of attachment. NHBn = c1ccc(CN*)cc1

The target of the test is Mu-type opioid receptor (Homo sapiens, UniProt P35372). As to the kind of experiment: Binding affinity to human mu opioid receptor.
Chain of Mu-type opioid receptor (P35372 whole entry): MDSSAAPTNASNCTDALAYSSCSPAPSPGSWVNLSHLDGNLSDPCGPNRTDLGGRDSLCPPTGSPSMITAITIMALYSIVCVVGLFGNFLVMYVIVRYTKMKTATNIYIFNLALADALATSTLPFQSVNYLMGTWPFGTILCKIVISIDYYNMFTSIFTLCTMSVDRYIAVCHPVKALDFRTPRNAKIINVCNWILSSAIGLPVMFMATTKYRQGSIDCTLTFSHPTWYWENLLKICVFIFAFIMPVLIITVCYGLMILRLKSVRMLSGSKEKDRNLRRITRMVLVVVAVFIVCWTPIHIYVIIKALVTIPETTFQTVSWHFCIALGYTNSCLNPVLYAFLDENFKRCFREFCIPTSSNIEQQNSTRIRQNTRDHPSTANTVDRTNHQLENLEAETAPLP
In the case of `C[C@@H](NC(=O)[C@H](Cc1c[nH]c2ccccc12)NC(=O)[C@@H]1CCCN1C(=O)[C@@H](N)Cc1ccc(O)cc1)C(=O)NCc1ccccc1`, the pKi (commonly −log10 of the Ki, conventionally taken in molar units) was 8.34. With `CC(C)[C@@H](NC(=O)[C@H](Cc1ccccc1)NC(=O)[C@@H]1CCCN1C(=O)[C@@H](N)Cc1ccc(O)cc1)C(=O)NCc1ccccc1`, the pKi is 8.30. `N[C@@H](Cc1ccc(O)cc1)C(=O)N1CCC[C@H]1C(=O)N[C@@H](Cc1c[nH]c2ccccc12)C(=O)NCC(=O)NCc1ccccc1` (H-YPWG-NHBn) gave a pKi of 7.25. The molecule `CC(C)[C@@H](NC(=O)[C@H](Cc1c[nH]c2ccccc12)NC(=O)[C@@H]1CCCN1C(=O)[C@@H](N)Cc1ccc(O)cc1)C(=O)NCc1ccccc1` gave a pKi of 8.63. With `C[C@@H](NC(=O)[C@H](Cc1ccccc1)NC(=O)[C@@H]1CCCN1C(=O)[C@@H](N)Cc1ccc(O)cc1)C(=O)NCc1ccccc1`, the pKi is 8.06.

Turning to `C[C@H](NC(=O)[C@H](Cc1ccccc1)NC(=O)[C@@H]1CCCN1C(=O)[C@@H](N)Cc1ccc(O)cc1)C(=O)NCc1ccccc1`, the pKi is 6.91. Against the preceding molecule, the pKi is 1.15 log units lower.
